Reference: paper PMC12892976, “Alkylation-based optimization of antifungal FPPS inhibitors yields a potent, broad-spectrum lipophilic zoledronate derivative” (mBio, 2025)
Read-outs that look alike come from different tables or passages of the source.

Experiments:
Candida albicans [1] = assay: checkerboard drug interaction (FICI, MICc);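 on all read-outs here: antifungal plus FPPS inhibitor combinations on Candida albicans tested by a simplified diagonal checkerboard screen, with FICI calculated under the Loewe additivity model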; format: cell-based; conditions: C. albicans; for INH FD (MIC-MICc fold decrease): fold decrease of inhibitor MIC
Protocol: (§1) Drug interactions between antifungals and FPPS inhibitors were investigated using a simplified checkerboard diagonal screening method ([45]). […] FICIs were determined according to the Loewe additivity model ([17]).

Candida albicans [2] = assay: MIC/MFC broth microdilution (CLSI); format: cell-based; conditions: Candida albicans SC5314
Protocol: (§2) Antifungal susceptibility was determined by broth microdilution according to the CLSI guidelines described in M27-Ed4 ([16]). […] MFC was determined by back-plating drug-treated cultures from MIC broths onto SDA plates. The MFC was defined as the lowest concentration from which no colonies could be cultured.

eight fungal species [3] = assay: checkerboard interaction with azoles, summary across the eight species; format: cell-based; conditions: geometric mean MIC in combination with azoles
Source text: Synergy between lipophilic FPPS inhibitors and azole antifungals was investigated by determining the fractional inhibitory concentration index (FICI) (Fig. 2; Table S1 Fig. S1) ([17]). […]. Derivatives PLA9 and 11, and PDA9, 11, and 12 antagonized azoles in C. albicans, C. neoformans, and C. deuterogattii, yet were largely synergistic in C. glabrata and S. cerevisiae. […].

Aspergillus fumigatus [4] = assay: checkerboard drug interaction (FICI, MICc);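 on all read-outs here: simplified diagonal checkerboard screen pairing antifungals with FPPS inhibitors against Aspergillus fumigatus, with FICI calculated under the Loewe additivity model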; format: cell-based; conditions: A. fumigatus; for INH FD (MIC-MICc fold decrease): fold decrease of inhibitor MIC
Protocol: as §1

eight fungal species [5] = assay: MIC/MFC summary across the eight fungal species of Table 1; format: cell-based
Protocol: The antifungal activity of these compounds was evaluated according to CLSI guidelines ([16]).

Trichophyton rubrum [6] = assay: checkerboard drug interaction (FICI, MICc);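 further: simplified diagonal checkerboard screen pairing azole antifungals with FPPS inhibitors, FICI calculated under the Loewe additivity model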; format: cell-based; conditions: T. rubrum
Protocol: as §1

Saccharomyces cerevisiae [7] = assay: MIC/MFC broth microdilution (CLSI); format: cell-based; conditions: Saccharomyces cerevisiae S288c
Protocol: as §2

Aspergillus flavus [8] = assay: checkerboard drug interaction (FICI, MICc);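 further: simplified diagonal checkerboard screen pairing azole antifungals with FPPS inhibitors, FICI calculated under the Loewe additivity model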; format: cell-based; parameters: INH MICc (KET:INH) / INH MICc (FLC:INH): unit not given beside the values; conditions: A. flavus
HEK-293T cells = assay: MTT reduction cytotoxicity assay; format: cell-based; conditions: Homo sapiens, HEK-293T, 72 h, HEK-293T, MTT, 72 h; read-out: HEK IC50
Trichophyton rubrum [9] = assay: MIC/MFC broth microdilution (CLSI); conditions: Trichophyton rubrum
Protocol: as §2

Candida glabrata [10] = assay: checkerboard drug interaction (FICI, MICc);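 on all read-outs here: simplified diagonal checkerboard screen pairing antifungals with FPPS inhibitors, FICI calculated under the Loewe additivity model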; format: cell-based; conditions: C. glabrata; for INH FD (MIC-MICc fold decrease): fold decrease of inhibitor MIC
Protocol: as §1

Cryptococcus neoformans [11] = assay: checkerboard drug interaction (FICI, MICc);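 on all read-outs here: antifungal plus FPPS inhibitor pairs tested against Cryptococcus neoformans by simplified diagonal checkerboard screening, FICI computed under the Loewe additivity model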; format: cell-based; conditions: C. neoformans; for INH FD (MIC-MICc fold decrease): fold decrease of inhibitor MIC
Protocol: as §1

[12] = system: Cryptococcus deuterogattii; assay: MIC/MFC broth microdilution (CLSI); conditions: Cryptococcus deuterogattii;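 further: broth microdilution per CLSI M27-Ed4. MFC is the lowest concentration yielding no colonies when MIC broths are subcultured onto SDA plates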
Protocol: as §2

Aspergillus fumigatus [13] = assay: MIC/MFC broth microdilution (CLSI); conditions: ATCC204305
Protocol: as §2

Cryptococcus neoformans [14] = assay: MIC/MFC broth microdilution (CLSI); conditions: Cryptococcus neoformans;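 further: susceptibility testing followed the CLSI M27-Ed4 broth microdilution document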
Protocol: as §2

Candida glabrata [15] = assay: MIC/MFC broth microdilution (CLSI); conditions: Nakaseomyces glabratus, CBS138;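 further: broth microdilution following CLSI M27-Ed4, MFC taken as the lowest drug level yielding no growth once MIC wells were subcultured on SDA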
Protocol: as §2

Saccharomyces cerevisiae [16] = assay: checkerboard drug interaction (FICI, MICc);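 on all read-outs here: simplified diagonal checkerboard screen pairing antifungals with FPPS inhibitors, FICI calculated under the Loewe additivity model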; format: cell-based; parameters: INH MICc / INH MICc (ITR:INH) / INH MICc (KET:INH) / INH MICc (FLC:INH): unit not given beside the values; conditions: S. cerevisiae; for INH FD (MIC-MICc fold decrease): fold decrease of inhibitor MIC
Aspergillus flavus [17] = assay: MIC/MFC broth microdilution (CLSI); conditions: ATCC204304
Protocol: as §2

[18] = system: Cryptococcus deuterogattii; assay: checkerboard drug interaction (FICI, MICc);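 on all read-outs here: simplified diagonal checkerboard screen pairing antifungal drugs with FPPS inhibitors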; format: cell-based; conditions: C. deuterogattii; for INH FD (MIC-MICc fold decrease): fold decrease of inhibitor MIC
Protocol: as §1

[19] = FLC:INH combination, MIC of the inhibitor in combination with FLC
[20] = FLC:INH combination, fold decrease of FLC MIC
[21] = ITR:INH combination, MIC of the inhibitor in combination with ITR
[22] = ITR:INH combination, fold decrease of ITR MIC
[23] = KET:INH combination, MIC of the inhibitor in combination with KET
[24] = KET:INH combination, fold decrease of KET MIC
[25] = FLC:INH combination, MIC of FLC in combination with the inhibitor
[26] = ITR:INH combination, MIC of ITR in combination with the inhibitor
[27] = KET:INH combination, MIC of KET in combination with the inhibitor
[28] = Fractional Inhibitory Concentration Index, fluconazole + inhibitor
[29] = Fractional Inhibitory Concentration Index, itraconazole + inhibitor
[30] = Fractional Inhibitory Concentration Index, ketoconazole + inhibitor
[31] = MIC of the inhibitor in combination with fluconazole
[32] = MIC of the inhibitor in combination with itraconazole
[33] = MIC of the inhibitor in combination with ketoconazole
[34] = MIC-MICc fold decrease of fluconazole, negative = increase
[35] = MIC-MICc fold decrease of itraconazole, negative = increase
[36] = MIC-MICc fold decrease of ketoconazole, negative = increase
[37] = MIC-MICc fold decrease of the inhibitor, with fluconazole
[38] = MIC-MICc fold decrease of the inhibitor, with itraconazole
[39] = MIC-MICc fold decrease of the inhibitor, with ketoconazole

## CCCCCCCCCCCN1CCC[C@H]1C(=O)N[C@@H](CC(=O)O)C(=O)O [PLA11]
Candida albicans [1]; FLC:INH combination
  FICI: ≥4
  INH FD (MIC-MICc fold decrease): 1
Candida albicans [1]; [19]
  INH MICc: 256
Candida albicans [1]; [20]
  FLC FD (MIC-MICc fold decrease): -4
Candida albicans [1]; ITR:INH combination
  FICI: ≥4
  INH FD (MIC-MICc fold decrease): 1
Candida albicans [1]; [21]
  INH MICc: 256
Candida albicans [1]; [22]
  ITR FD (MIC-MICc fold decrease): -4
Candida albicans [1]; KET:INH combination
  FICI: ≥4
  INH FD (MIC-MICc fold decrease): 2
Candida albicans [1]; [23]
  INH MICc: 128
Candida albicans [1]; [24]
  KET FD (MIC-MICc fold decrease): < -4
Candida albicans [2]
  MFC: > 128 µg/mL
  MIC: > 128 µg/mL
Eight fungal species [3]
  GM fungal MICc: 55.4
Aspergillus fumigatus [4]; FLC:INH combination
  FICI: 2
  INH FD (MIC-MICc fold decrease): 1
Aspergillus fumigatus [4]; [25]
  FLC MICc: 128
Aspergillus fumigatus [4]; [19]
  INH MICc: 256
Aspergillus fumigatus [4]; [20]
  FLC FD (MIC-MICc fold decrease): 1
Aspergillus fumigatus [4]; ITR:INH combination
  FICI: 0.51
  INH FD (MIC-MICc fold decrease): 128
Aspergillus fumigatus [4]; [26]
  ITR MICc: 0.063
Aspergillus fumigatus [4]; [21]
  INH MICc: 2
Aspergillus fumigatus [4]; [22]
  ITR FD (MIC-MICc fold decrease): 2
Aspergillus fumigatus [4]; KET:INH combination
  FICI: 1.5
  INH FD (MIC-MICc fold decrease): 2
Aspergillus fumigatus [4]; [27]
  KET MICc: 4
Aspergillus fumigatus [4]; [23]
  INH MICc: 128
Aspergillus fumigatus [4]; [24]
  KET FD (MIC-MICc fold decrease): 1
Eight fungal species [5]; across eight species, read-out: Geometric mean MFC
  MFC: > 128 µg/mL
Eight fungal species [5]; geometric mean across eight species, read-out: GM fungal MIC
  MIC: > 128 µg/mL
Eight fungal species [5]; read-out: Geometric mean MIC
  MIC: > 128 µg/mL
Trichophyton rubrum [6]; [28]
  FICI (FLC:INH): 3
Trichophyton rubrum [6]; [29]
  FICI (ITR:INH): 2
Trichophyton rubrum [6]; [30]
  FICI (KET:INH): 1.5
Trichophyton rubrum [6]; [31]
  INH MICc (FLC:INH): 256
Trichophyton rubrum [6]; [32]
  INH MICc (ITR:INH): 256
Trichophyton rubrum [6]; [33]
  INH MICc (KET:INH): 128
Trichophyton rubrum [6]; [34]
  FLC FD (FLC:INH): -2
Trichophyton rubrum [6]; [35]
  ITR FD (ITR:INH): 1
Trichophyton rubrum [6]; [36]
  KET FD (KET:INH): 1
Trichophyton rubrum [6]; [37]
  INH FD (FLC:INH): 1
Trichophyton rubrum [6]; [38]
  INH FD (ITR:INH): 1
Trichophyton rubrum [6]; [39]
  INH FD (KET:INH): 2
Saccharomyces cerevisiae [7]
  MFC: > 128 µg/mL
  MIC: > 128 µg/mL
Aspergillus flavus [8]; [28]
  FICI (FLC:INH): 0.75
Aspergillus flavus [8]; [29]
  FICI (ITR:INH): 0.52
Aspergillus flavus [8]; [30]
  FICI (KET:INH): 2
Aspergillus flavus [8]; [31]
  INH MICc (FLC:INH): 64
Aspergillus flavus [8]; [32]
  INH MICc (ITR:INH): 4
Aspergillus flavus [8]; [33]
  INH MICc (KET:INH): 256
Aspergillus flavus [8]; [34]
  FLC FD (FLC:INH): 2
Aspergillus flavus [8]; [35]
  ITR FD (ITR:INH): 2
Aspergillus flavus [8]; [36]
  KET FD (KET:INH): 1
Aspergillus flavus [8]; [37]
  INH FD (FLC:INH): 4
Aspergillus flavus [8]; [38]
  INH FD (ITR:INH): 64
Aspergillus flavus [8]; [39]
  INH FD (KET:INH): 1
HEK-293T cells
  IC50: > 256 µg/mL
Trichophyton rubrum [9]
  MFC: > 128 µg/mL
  MIC: > 128 µg/mL
Candida glabrata [10]; FLC:INH combination
  FICI: 0.28
  INH FD (MIC-MICc fold decrease): 64
Candida glabrata [10]; [19]
  INH MICc: 4
Candida glabrata [10]; [20]
  FLC FD (MIC-MICc fold decrease): 4
Candida glabrata [10]; ITR:INH combination
  FICI: 0.27
  INH FD (MIC-MICc fold decrease): 128
Candida glabrata [10]; [21]
  INH MICc: 2
Candida glabrata [10]; [22]
  ITR FD (MIC-MICc fold decrease): 4
Candida glabrata [10]; KET:INH combination
  FICI: 0.27
  INH FD (MIC-MICc fold decrease): 128
Candida glabrata [10]; [23]
  INH MICc: 2
Candida glabrata [10]; [24]
  KET FD (MIC-MICc fold decrease): 4
Cryptococcus neoformans [11]; FLC:INH combination
  FICI: ≥4
  INH FD (MIC-MICc fold decrease): 1
Cryptococcus neoformans [11]; [19]
  INH MICc: 256
Cryptococcus neoformans [11]; [20]
  FLC FD (MIC-MICc fold decrease): < -4
Cryptococcus neoformans [11]; ITR:INH combination
  FICI: ≥4
  INH FD (MIC-MICc fold decrease): 1
Cryptococcus neoformans [11]; [21]
  INH MICc: 256
Cryptococcus neoformans [11]; [22]
  ITR FD (MIC-MICc fold decrease): < -4
Cryptococcus neoformans [11]; KET:INH combination
  FICI: ≥4
  INH FD (MIC-MICc fold decrease): 2
Cryptococcus neoformans [11]; [23]
  INH MICc: 128
Cryptococcus neoformans [11]; [24]
  KET FD (MIC-MICc fold decrease): -4
[12]
  MFC: > 128 µg/mL
  MIC: > 128 µg/mL
Aspergillus fumigatus [13]
  MFC: > 128 µg/mL
  MIC: > 128 µg/mL
Cryptococcus neoformans [14]
  MFC: > 128 µg/mL
  MIC: > 128 µg/mL
Candida glabrata [15]
  MFC: > 128 µg/mL
  MIC: > 128 µg/mL
Saccharomyces cerevisiae [16]; FLC:INH combination
  FICI: 0.31
  INH FD (MIC-MICc fold decrease): 16
Saccharomyces cerevisiae [16]; [25]
  FLC MICc: 1
Saccharomyces cerevisiae [16]; [19]
  INH MICc: 16
Saccharomyces cerevisiae [16]; [20]
  FLC FD (MIC-MICc fold decrease): 4
Saccharomyces cerevisiae [16]; ITR:INH combination
  FICI: 0.38
  INH FD (MIC-MICc fold decrease): 8
Saccharomyces cerevisiae [16]; [26]
  ITR MICc: 0.063
Saccharomyces cerevisiae [16]; [21]
  INH MICc: 32
Saccharomyces cerevisiae [16]; [22]
  ITR FD (MIC-MICc fold decrease): 4
Saccharomyces cerevisiae [16]; KET:INH combination
  FICI: 0.28
  INH FD (MIC-MICc fold decrease): 32
Saccharomyces cerevisiae [16]; [27]
  KET MICc: 0.5
Saccharomyces cerevisiae [16]; [23]
  INH MICc: 8
Saccharomyces cerevisiae [16]; [24]
  KET FD (MIC-MICc fold decrease): 4
Aspergillus flavus [17]
  MFC: > 128 µg/mL
  MIC: > 128 µg/mL
[18]; FLC:INH combination
  FICI: ≥4
  INH FD (MIC-MICc fold decrease): 1
[18]; [19]
  INH MICc: 256
[18]; [20]
  FLC FD (MIC-MICc fold decrease): -4
[18]; ITR:INH combination
  FICI: ≥4
  INH FD (MIC-MICc fold decrease): 2
[18]; [21]
  INH MICc: 128
[18]; [22]
  ITR FD (MIC-MICc fold decrease): -4
[18]; KET:INH combination
  FICI: 1
  INH FD (MIC-MICc fold decrease): 2
[18]; [23]
  INH MICc: 128
[18]; [24]
  KET FD (MIC-MICc fold decrease): 2
